Molecular target: T1, HPK1 (Homo sapiens, UniProt Q92918)
T1 construct: A HiBiT tag was introduced by CRISPR on the N terminus of HPK1 in Jurkat cells; host or cells: Jurkat cells (ATCC TIB-152), monoclonal line with CRISPR knock-in of HiBiT at the endogenous HPK1 locus
Test: HPK1 Cellular HiBit Degradation Assay
Type: cell-based
Conditions: HiBiT HPK1 Jurkat cells, 24 hrs; for DC50: concentration at which 50% of HPK1 was remaining, read-out: DC50 Category; for Dmax: Jurkat, read-out: Dmax Category
Method in brief: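 HPK1 levels are read by HiBiT luminescence after 24 h exposure of HiBiT-knock-in Jurkat cells to compound at 10 uM–0.1 nM final (11 points). Relative to DMSO (100%), DC50 is the concentration leaving 50% HPK1 from a variable-slope fit, and Dmax is 100 minus minimum remaining. Viability checked in-plate.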

[1] = maximum degradation vs DMSO vehicle control

T1 sequence (Q92918 whole entry): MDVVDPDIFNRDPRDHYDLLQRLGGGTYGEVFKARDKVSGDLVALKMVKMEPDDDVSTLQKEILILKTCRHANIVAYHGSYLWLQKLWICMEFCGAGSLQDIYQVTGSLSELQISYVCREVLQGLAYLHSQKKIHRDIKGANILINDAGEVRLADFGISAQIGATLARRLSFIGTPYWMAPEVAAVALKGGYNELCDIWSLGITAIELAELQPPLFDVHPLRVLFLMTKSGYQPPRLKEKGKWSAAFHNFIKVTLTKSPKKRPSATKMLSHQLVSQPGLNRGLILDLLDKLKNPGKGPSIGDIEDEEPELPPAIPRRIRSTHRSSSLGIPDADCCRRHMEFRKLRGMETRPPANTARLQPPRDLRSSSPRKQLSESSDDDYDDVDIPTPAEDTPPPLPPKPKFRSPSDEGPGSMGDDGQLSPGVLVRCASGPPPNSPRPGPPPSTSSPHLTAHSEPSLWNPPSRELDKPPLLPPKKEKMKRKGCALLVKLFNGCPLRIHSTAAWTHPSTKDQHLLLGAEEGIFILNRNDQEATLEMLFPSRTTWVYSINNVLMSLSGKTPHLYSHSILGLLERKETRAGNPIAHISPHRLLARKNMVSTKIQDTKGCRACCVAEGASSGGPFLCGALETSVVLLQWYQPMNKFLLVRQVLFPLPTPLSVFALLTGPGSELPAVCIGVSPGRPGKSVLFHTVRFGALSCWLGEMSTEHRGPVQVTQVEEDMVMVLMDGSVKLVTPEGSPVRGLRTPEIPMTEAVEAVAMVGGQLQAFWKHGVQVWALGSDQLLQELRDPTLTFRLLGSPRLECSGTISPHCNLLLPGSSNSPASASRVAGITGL

Row | DC50 [nM] | Dmax [1] [%] | SMILES | Dmax Category [1]
1 | < 100 | > 85 | CC(C)n1cnc2cc(-c3ccc4c(c3)N([C@H]3C[C@@H](N5CCCCC5)C3)C(=O)C43CCN(S(=O)(=O)C4CCN(C(=O)C5CCN(c6ccc(C7CCC(=O)NC7=O)cn6)CC5)CC4)CC3)nc(NC3CC3)c21 (mixture of isomers) [Example 159, (3RS)-3-(6-{4-[4-({6-[4-(cyclopropylamino)-3-(propan-2-yl)-3H-imidazo[4,5-c]pyridin-6-yl]-2-oxo-1-[(1S,3S)-3-(piperidin-1-yl)cyclobutyl]-1,2-dihydrospiro[indole-3,4′-piperidin]-1′-yl}sulfonyl)piperidine-1-carbonyl]piperidin-1-yl}pyridin-3-yl)piperidine-2,6-dione] | –
2 | < 100 | 70 to 85 | CC(C)n1cnc2cc(-c3ccc4c(c3)N([C@H]3C[C@@H](N5CCCCC5)C3)C(=O)C43CCN(C(=O)N4CCN(C(=O)C5CCN(c6ccc(C7CCC(=O)NC7=O)cn6)CC5)CC4)CC3)nc(NC3CC3)c21 (some centres unmarked) [Example 180] | –
3 | < 100 | 70 to 85 | CC(C)n1cnc2cc(-c3ccc4c(c3)N([C@H]3C[C@@H](N5CCCCC5)C3)C(=O)C43CCN(C(=O)[C@H]4CC[C@H](C(=O)N5CCC(N(C)c6ccc(C7CCC(=O)NC7=O)cn6)CC5)CC4)CC3)nc(NC3CC3)c21 (mixture of isomers) [Example 137, (3RS)-3-{6-[methyl({1-[(1R,4R)-4-({6-[4-(cyclopropylamino)-3-(propan-2-yl)-3H-imidazo[4,5-c]pyridin-6-yl]-2-oxo-1-[(1S,3S)-3-(piperidin-1-yl)cyclobutyl]-1,2-dihydrospiro[indole-3,4′-piperidin]-1′-yl}carbonyl)cyclohexanecarbonyl]piperidin-4-yl})amino]pyridin-3-yl}piperidine-2,6-dione] | –
4 | < 100 | 70 to 85 | CC(C)n1cnc2cc(-c3ccc4c(c3)N([C@H]3C[C@@H](N5CCCCC5)C3)C(=O)C43CCN(C(=O)[C@@H]4CCN(C(=O)C5CCN(c6ccc(C7CCC(=O)NC7=O)cn6)CC5)[C@H](C)C4)CC3)nc(NC3CC3)c21 (mixture of isomers) [Example 245, (3RS)-3-(6-{4-[(2R,4R)-4-({6-[4-(cyclopropylamino)-3-(propan-2-yl)-3H-imidazo[4,5-c]pyridin-6-yl]-2-oxo-1-[(1S,3S)-3-(piperidin-1-yl)cyclobutyl]-1,2-dihydrospiro[indole-3,4′-piperidin]-1′-yl}carbonyl)-2-methylpiperidine-1-carbonyl]piperidin-1-yl}pyridin-3-yl)piperidine-2,6-dione] | –
5 | 100 to 500 | 50 to 70 | CC(C)n1cnc2cc(-c3ccc4c(c3)N([C@H]3C[C@@H](N5CCCCC5)C3)C(=O)C43CCN(C(=O)[C@H]4CC[C@@H](C(=O)N5CCC(N(C)c6ccc(C7CCC(=O)NC7=O)cc6)CC5)CC4)CC3)nc(NC3CC3)c21 (mixture of isomers) [Example 228, (3RS)-3-{4-[methyl({1-[(1S,4S)-4-({6-[4-(cyclopropylamino)-3-(propan-2-yl)-3H-imidazo[4,5-c]pyridin-6-yl]-2-oxo-1-[(1S,3S)-3-(piperidin-1-yl)cyclobutyl]-1,2-dihydrospiro[indole-3,4′-piperidin]-1′-yl}carbonyl)cyclohexanecarbonyl]piperidin-4-yl})amino]phenyl}piperidine-2,6-dione] | –
6 | 100 to 500 | > 85 | CC(C)n1cnc2cc(-c3ccc4c(c3)N([C@H]3C[C@@H](N5CCCCC5)C3)C(=O)C43CCN(C(=O)C4(C)CCN(C(=O)C5CCN(c6ccc(C7CCC(=O)NC7=O)cn6)CC5)CC4)CC3)nc(Oc3ccccc3F)c21 (stereo partly drawn) [Example 164, 3-(6-{4-[4-({6-[4-(2-fluorophenoxy)-3-(propan-2-yl)-3H-imidazo[4,5-c]pyridin-6-yl]-2-oxo-1-[(1S,3S)-3-(piperidin-1-yl)cyclobutyl]-1,2-dihydrospiro[indole-3,4′-piperidin]-1′-yl}carbonyl)-4-methylpiperidine-1-carbonyl]piperidin-1-yl}pyridin-3-yl)piperidine-2,6-dione] | –
7 | 100 to 500 | > 85 | Cc1cc(C2CCC(=O)NC2=O)ccc1O[C@H]1CC[C@H](C(=O)N2CCC(C)(C(=O)N3CCC4(CC3)C(=O)N([C@H]3C[C@@H](N5CCCCC5)C3)c3cc(-c5cc6ncn(C(C)C)c6c(NC6CC6)n5)ccc34)CC2)CC1 (mixture of isomers) [Example 156, (3RS)-3-(3-methyl-4-{[(1R,4R)-4-[4-({6-[4-(cyclopropylamino)-3-isopropylimidazo[4,5-c]pyridin-6-yl]-2-oxo-1-[(1S,3S)-3-(piperidin-1-yl)cyclobutyl]spiro[indole-3,4′-piperidin]-1′-yl}carbonyl)-4-methylpiperidine-1-carbonyl]cyclohexyl]oxy}phenyl)piperidine-2,6-dione] | –

Continued, compound first:

Row | SMILES | DC50 [nM] | Dmax [1] [%] | Dmax Category [1]
8 | Cc1cc(F)c(Nc2nc(-c3ccc4c(c3)N([C@H]3C[C@@H](N5CCCCC5)C3)C(=O)C43CCN(C(=O)C4=CCN(C(=O)C5CCN(c6ccc7c(c6)C(=O)N(C6CCC(=O)NC6=O)C7=O)CC5)CC4)CC3)cc3ncn(C(C)C)c23)cc1C(=O)NC(C)C (mixture of isomers) [Example 37, 5-[(6-{1′-[1-(1-{2-[(3RS)-2,6-dioxopiperidin-3-yl]-1,3-dioxo-2,3-dihydro-1H-isoindol-5-yl}piperidine-4-carbonyl)-1,2,3,6-tetrahydropyridine-4-carbonyl]-2-oxo-1-[(1S,3S)-3-(piperidin-1-yl)cyclobutyl]-1,2-dihydrospiro[indole-3,4′-piperidin]-6-yl}-3-(propan-2-yl)-3H-imidazo[4,5-c]pyridin-4-yl)amino]-4-fluoro-2-methyl-N-(propan-2-yl)benzamide] | 100 to 500 | 50 to 70 | –
9 | CC(C)n1cnc2cc(-c3ccc4c(c3)N([C@H]3C[C@@H](N5CCCCC5)C3)C(=O)C43CCN(C(=O)C4CCN(C(=O)C5CCN(c6ccc(C7CCC(=O)NC7=O)cn6)CC5)CC4)CC3)nc(Nc3ccncc3F)c21 (mixture of isomers) [Example 77, (3RS)-3-[6-(4-{4-[(6-{4-[(3-Fluoropyridin-4-yl)amino]-3-(propan-2-yl)-3H-imidazo[4,5-c]pyridin-6-yl}-2-oxo-1-[(1S,3S)-3-(piperidin-1-yl)cyclobutyl]-1,2-dihydrospiro[indole-3,4′-piperidin]-1′-yl)carbonyl]piperidine-1-carbonyl}piperidin-1-yl)pyridin-3-yl]piperidine-2,6-dione] | < 100 | 70 to 85 | –
10 | CC(C)n1cnc2cc(-c3ccc4c(c3)N([C@H]3C[C@@H](N5CCCCC5)C3)C(=O)C43CCN(C(=O)[C@H]4CC[C@H](C(=O)N5CCC(Nc6ccc(C7CCC(=O)NC7=O)cn6)CC5)CC4)CC3)nc(Nc3ccccc3F)c21 (stereo partly drawn) [Example 26, 3-(6-((1-((1R,4R)-4-(6-(4-((2-fluorophenyl)amino)-3-isopropyl-3H-imidazo[4,5-c]pyridin-6-yl)-2-oxo-1-((1s,3S)-3-(piperidin-1-yl)cyclobutyl)spiro[indoline-3,4′-piperidine]-1′-carbonyl)cyclohexane-1-carbonyl)piperidin-4-yl)amino)pyridin-3-yl)piperidine-2,6-dione] | < 100 | 70 to 85 | –
11 | CC(C)n1cnc2cc(-c3ccc4c(c3)N([C@H]3C[C@@H](N5CCCCC5)C3)C(=O)C43CCN(C(=O)C4CCN(C(=O)[C@H]5CC[C@H](N(C)c6ccc(C7CCC(=O)NC7=O)cn6)CC5)CC4)CC3)nc(NC3CC3)c21 (mixture of isomers) [Example 130, (3RS)-3-(6-{methyl[(1R,4R)-4-[4-({6-[4-(cyclopropylamino)-3-(propan-2-yl)-3H-imidazo[4,5-c]pyridin-6-yl]-2-oxo-1-[(1S,3S)-3-(piperidin-1-yl)cyclobutyl]-1,2-dihydrospiro[indole-3,4′-piperidin]-1′-yl}carbonyl)piperidine-1-carbonyl]cyclohexyl]amino}pyridin-3-yl)piperidine-2,6-dione] | < 100 | 50 to 70 | –
12 | CC(C)n1cnc2cc(-c3ccc4c(c3)N(C3CC(N5CCCCC5)C3)C(=O)C43CCN(C(=O)[C@@H]4CCN(C(=O)C5CCN(c6ccc(C7CCC(=O)NC7=O)cn6)CC5)C4)CC3)nc(Nc3ccncc3F)c21 (mixture of isomers) [Example 25, (3RS)-3-(6-{4-[(3R)-3-[(6-{4-[(3-fluoropyridin-4-yl)amino]-3-(propan-2-yl)-3H-imidazo[4,5-c]pyridin-6-yl}-2-oxo-1-[(1S,3S)-3-(piperidin-1-yl)cyclobutyl]-1,2-dihydrospiro[indole-3,4′-piperidin]-1′-yl)carbonyl]pyrrolidine-1-carbonyl]piperidin-1-yl}pyridin-3-yl)piperidine-2,6-dione] | < 100 | – | B (B: >70%-<85%)
13 | CC(C)n1cnc2cc(-c3ccc4c(c3)N([C@H]3C[C@@H](N5CCCCC5)C3)C(=O)C43CCN(C(=O)C4CCN(C(=O)CC5CCN(c6ccc(C7CCC(=O)NC7=O)cn6)CC5)CC4)CC3)nc(NC3CC3)c21 (mixture of isomers) [Example 93, (3RS)-3-[6-(4-{2-[4-({6-[4-(cyclopropylamino)-3-(propan-2-yl)-3H-imidazo[4,5-c]pyridin-6-yl]-2-oxo-1-[(1S,3S)-3-(piperidin-1-yl)cyclobutyl]-1,2-dihydrospiro[indole-3,4′-piperidin]-1′-yl}carbonyl)piperidin-1-yl]-2-oxoethyl}piperidin-1-yl)pyridin-3-yl]piperidine-2,6-dione] | < 100 | 50 to 70 | –
